In PubChem BioAssay AID248 (DTP/NCI, 2004):
Several values for one entry are separate records, joined by “and”; a condition that tells them apart may be missing. Equal values may be shown once. Inconclusive results and toxic doses are left out. Rule as the data show it: active = T/C of 150% or more; inactive = T/C below 125%.

Tested on: L1210 leukemia ip in BDF1 mice, survival T/C
Assay: NCI In Vivo Anticancer Drug Screen. Data for tumor model L1210 Leukemia (intraperitoneal) in B6D2F1 (BDF1) mice
Conditions: endpoint: mean survival time, higher = longer survival
Procedure, shortened: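 Value reflects the ratio of survival in compound-treated mice to survival in vehicle-treated controls, with both groups carrying the same transplanted tumor.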

[1] = dose: 100.0 mg/kg/injection, schedule: Q01DX001 (ip), vehicle: saline
[2] = dose: 200.0 mg/kg/injection, schedule: Q01DX001 (ip), vehicle: saline
[3] = dose: 400.0 mg/kg/injection, schedule: Q01DX001 (ip), vehicle: saline
[4] = dose: 100.0 mg/kg/injection, schedule: Q01DX009 (ip), vehicle: Klucel (hydroxypropylcellulose) (HPC)
[5] = dose: 200.0 mg/kg/injection, schedule: Q01DX009 (ip), vehicle: Klucel (hydroxypropylcellulose) (HPC)

Measured: T/C

O=C(O)C1(C(=O)O)CCC1c1ccccc1 (stereo not drawn)
inactive: [1] 94 % of control | [2] 113 % of control | [3] 102 % of control

CCOC(=O)C1CC1(C)Br (stereo not drawn)
inactive: dose: 3.13 mg/kg/injection, schedule: Q04DX002 (ip), vehicle: saline with Tween-80 97 % of control | dose: 6.25 mg/kg/injection, schedule: Q04DX002 (ip), vehicle: saline with Tween-80 87 % of control | dose: 25.0 mg/kg/injection, schedule: Q04DX002 (ip), vehicle: saline with Tween-80 87 % of control | dose: 100.0 mg/kg/injection, schedule: Q04DX002 (ip), vehicle: saline with Tween-80 90 % of control

O=C(O)c1c(Br)c(Br)c(Br)c(Br)c1C(=O)Nc1ccc([N+](=O)[O-])cc1
inactive: [4] 104 % of control | dose: 100.0 mg/kg/injection, schedule: Q04DX002 (ip), vehicle: Klucel (hydroxypropylcellulose) (HPC) 96 % of control | [5] 109 % of control | dose: 200.0 mg/kg/injection, schedule: Q04DX002 (ip), vehicle: Klucel (hydroxypropylcellulose) (HPC) 96 % of control | dose: 400.0 mg/kg/injection, schedule: Q04DX002 (ip), vehicle: Klucel (hydroxypropylcellulose) (HPC) 107 % of control

COc1ccccc1/C=C/[N+](=O)[O-]
inactive: dose: 50.0 mg/kg/injection, schedule: Q04DX003 (ip), vehicle: Klucel (hydroxypropylcellulose) (HPC) 95 % of control | dose: 100.0 mg/kg/injection, schedule: Q04DX003 (ip), vehicle: Klucel (hydroxypropylcellulose) (HPC) 101 % of control

CNC(=S)N/N=C/C(=N\NC(=S)NC)C(O)C(O)C(O)C(O)CO (stereo not drawn)
inactive: dose: 50.0 mg/kg/injection, schedule: Q01DX009 (ip), vehicle: saline 100 % of control | [1] 100 % of control | dose: 100.0 mg/kg/injection, schedule: Q01DX009 (ip), vehicle: saline 91 % of control | [2] 97 % of control | dose: 200.0 mg/kg/injection, schedule: Q01DX009 (ip), vehicle: saline 100 % of control

CC(=O)OC1=C(C)CCC1=O
inactive: [1] 89 % of control | [2] 95 % of control | [3] 89 % of control

COc1ccccc1C(CC(=O)c1ccccc1)Sc1ccccc1N (stereo not drawn)
inactive: dose: 100.0 mg/kg/injection, schedule: Q01DX005 (ip), vehicle: Klucel (hydroxypropylcellulose) (HPC) 118 % of control and 89 % of control | [4] 93 % of control | dose: 130.0 mg/kg/injection, schedule: Q01DX005 (ip), vehicle: Klucel (hydroxypropylcellulose) (HPC) 97 % of control | dose: 200.0 mg/kg/injection, schedule: Q01DX005 (ip), vehicle: Klucel (hydroxypropylcellulose) (HPC) 115 % of control and 90 % of control | [5] 93 % of control | dose: 300.0 mg/kg/injection, schedule: Q01DX005 (ip), vehicle: Klucel (hydroxypropylcellulose) (HPC) 103 % of control | dose: 400.0 mg/kg/injection, schedule: Q01DX005 (ip), vehicle: Klucel (hydroxypropylcellulose) (HPC) 96 % of control and 87 % of control | dose: 400.0 mg/kg/injection, schedule: Q01DX009 (ip), vehicle: Klucel (hydroxypropylcellulose) (HPC) 86 % of control

CCN(CC)CCCC(C)Nc1ccnc2ccc(-c3ccccc3)cc12 (stereo not drawn)
inactive: dose: 5.0 mg/kg/injection, schedule: Q01DX001 (ip), vehicle: saline 100 % of control | dose: 10.0 mg/kg/injection, schedule: Q01DX001 (ip), vehicle: saline 100 % of control | dose: 20.0 mg/kg/injection, schedule: Q01DX001 (ip), vehicle: saline 91 % of control | dose: 40.0 mg/kg/injection, schedule: Q01DX001 (ip), vehicle: saline 96 % of control | dose: 80.0 mg/kg/injection, schedule: Q01DX001 (ip), vehicle: saline 104 % of control

Cc1cc2c(cc1C)NC(=O)CC(c1ccccc1)=N2
inactive: dose: 100.0 mg/kg/injection, schedule: Q01DX001 (ip), vehicle: carboxymethylcellulose (CMC) 98 % of control | dose: 200.0 mg/kg/injection, schedule: Q01DX001 (ip), vehicle: carboxymethylcellulose (CMC) 93 % of control | dose: 400.0 mg/kg/injection, schedule: Q01DX001 (ip), vehicle: carboxymethylcellulose (CMC) 98 % of control

C[N+](C)(C)Cc1ccccc1/C(=N\O)c1ccccc1
inactive: dose: 10.0 mg/kg/injection, schedule: Q01DX001 (ip), vehicle: carboxymethylcellulose (CMC) 96 % of control | dose: 20.0 mg/kg/injection, schedule: Q01DX001 (ip), vehicle: carboxymethylcellulose (CMC) 101 % of control

C[n+]1ccsc1
inactive: dose: 100.0 mg/kg/injection, schedule: Q04DX003 (ip), vehicle: saline with Tween-80 104 % of control | dose: 200.0 mg/kg/injection, schedule: Q04DX003 (ip), vehicle: saline with Tween-80 103 % of control | dose: 400.0 mg/kg/injection, schedule: Q04DX003 (ip), vehicle: saline with Tween-80 97 % of control

COC(=O)c1n[nH]c(C)c1N=NN(C)C
inactive: dose: 75.0 mg/kg/injection, schedule: Q01DX001 (ip), vehicle: saline 119 % of control | dose: 150.0 mg/kg/injection, schedule: Q01DX001 (ip), vehicle: saline 123 % of control

CCN(CC)C(=O)c1cccc(N)c1
inactive: [1] 98 % of control | [2] 98 % of control | [3] 95 % of control
